Laboratory results as given in ChEMBL document CHEMBL3396997, “Piperidine-3,4-diol and piperidine-3-ol derivatives of pyrrolo[2,1-f][1,2,4]triazine as inhibitors of anaplastic lymphoma kinase” (Bioorg Med Chem Lett, 2015).
In brackets after ≈: the same amount, converted by molar mass. Activity calls are given as the source filed them. The calls are words filed in the database; no cut-off is given here.

What was measured:
[1] = Cmax in Sprague-Dawley rat at 5 mg/kg, po; type: ADME, organism-based; parameters: dose 5 mg/kg, route oral; conditions: in vivo
[2] = (§1) Drug concentration in brain of human SUP-M2 cells xenografted SCID mouse at 30 mg/kg, po measured after 2 hrs; type: ADME, organism-based; parameters: dose 30 mg/kg, route oral; conditions: SCID, brain, read-out: Drug uptake
[3] = Volume of distribution in Sprague-Dawley rat at 1 mg/kg, iv; type: ADME, organism-based; parameters: dose 1 mg/kg, route intravenous; conditions: in vivo
[4] = Clearance in Sprague-Dawley rat at 1 mg/kg, iv; type: ADME, organism-based; parameters: dose 1 mg/kg, route intravenous; conditions: in vivo
[5] = Half life in mouse liver microsomes; type: ADME
[6] = Half life in human liver microsomes; type: ADME
[7] = (§2) Plasma concentration in human SUP-M2 cells xenografted SCID mouse at 30 mg/kg, po measured after 2 hrs; type: ADME, organism-based; parameters: dose 30 mg/kg, route oral; conditions: SCID, plasma
[8] = Plasma concentration in human SUP-M2 cells xenografted SCID mouse at 30 mg/kg, po measured after 12 hrs; type: ADME, organism-based; parameters: dose 30 mg/kg, route oral
[9] = Half life in Sprague-Dawley rat at 1 mg/kg, iv; type: ADME, organism-based; parameters: dose 1 mg/kg, route intravenous; conditions: in vivo
[10] = Drug concentration in brain of human SUP-M2 cells xenografted SCID mouse at 30 mg/kg, po measured after 24 hrs; type: ADME, organism-based; parameters: dose 30 mg/kg, route oral; conditions: read-out: Drug uptake
[11] = AUC (0 to infinity) in Sprague-Dawley rat at 1 mg/kg, iv; type: ADME, organism-based; parameters: time infinity, dose 1 mg/kg, route intravenous; conditions: plasma
[12] = Solubility in water at neutral pH; type: physicochemical
[13] = Half life in rat liver microsomes; type: ADME
[14] = Tmax in Sprague-Dawley rat at 5 mg/kg, po; type: ADME, organism-based; parameters: dose 5 mg/kg, route oral; conditions: in vivo
[15] = (§3) Drug concentration in brain of human SUP-M2 cells xenografted SCID mouse at 30 mg/kg, po measured after 6 hrs; type: ADME, organism-based; parameters: dose 30 mg/kg, route oral; conditions: SCID, brain, read-out: Drug uptake
[16] = Drug concentration in brain of human SUP-M2 cells xenografted SCID mouse at 30 mg/kg, po measured after 12 hrs; type: ADME, organism-based; parameters: dose 30 mg/kg, route oral; conditions: read-out: Drug uptake
[17] = Half life in monkey liver microsomes; type: ADME, Macaca mulatta; conditions: rhesus monkey
[18] = Plasma concentration in human SUP-M2 cells xenografted SCID mouse at 30 mg/kg, po measured after 24 hrs; type: ADME, organism-based; parameters: dose 30 mg/kg, route oral
[19] = (§4) Plasma concentration in human SUP-M2 cells xenografted SCID mouse at 30 mg/kg, po measured after 6 hrs; type: ADME, organism-based; parameters: dose 30 mg/kg, route oral; conditions: SCID, plasma
[20] = AUC (0 to infinity) in Sprague-Dawley rat at 5 mg/kg, po; type: ADME, organism-based; parameters: time infinity, dose 5 mg/kg, route oral; conditions: plasma
[21] = Oral bioavailability in Sprague-Dawley rat at 5 mg/kg; type: ADME, organism-based; conditions: in vivo
[22] = tested on: SUP-M2; experiment: Antitumor activity against human SUP-M2 cells xenografted in SCID mouse assessed as induction of tumor regression at 30 mg/kg, po BID for 10 days; type: functional, organism-based; parameters: dose 30 mg/kg
[23] = tested on: SUP-M2; experiment: Antitumor activity against human SUP-M2 cells xenografted in SCID mouse assessed as induction of tumor regression at 55 mg/kg, po BID for 10 days; type: functional, organism-based; parameters: dose 55 mg/kg
[24] = Drug concentration in brain of human SUP-M2 cells xenografted SCID mouse at 30 mg/kg, po measured after 16 hrs; type: ADME, organism-based; parameters: dose 30 mg/kg, route oral; conditions: read-out: Drug uptake
[25] = Plasma concentration in human SUP-M2 cells xenografted SCID mouse at 30 mg/kg, po measured after 16 hrs; type: ADME, organism-based; parameters: dose 30 mg/kg, route oral
[26] = tested on: Mus musculus; experiment: Toxicity in human SUP-M2 cells xenografted SCID mouse assessed as body weight loss at 55 mg/kg, po BID for 10 days; type: organism-based; parameters: dose 55 mg/kg, route oral; conditions: in vivo, 240 h
[27] = tested on: Brain; experiment: as §1; type: ADME, organism-based; parameters: dose 30 mg/kg, route oral; conditions: in vivo, 2 h
[28] = target: Cytochrome P450 3A4 (Homo sapiens, UniProt P08684); experiment: Inhibition of CYP3A4 (unknown origin); type: ADME
Cytochrome P450 3A4, sequence (P08684 whole entry): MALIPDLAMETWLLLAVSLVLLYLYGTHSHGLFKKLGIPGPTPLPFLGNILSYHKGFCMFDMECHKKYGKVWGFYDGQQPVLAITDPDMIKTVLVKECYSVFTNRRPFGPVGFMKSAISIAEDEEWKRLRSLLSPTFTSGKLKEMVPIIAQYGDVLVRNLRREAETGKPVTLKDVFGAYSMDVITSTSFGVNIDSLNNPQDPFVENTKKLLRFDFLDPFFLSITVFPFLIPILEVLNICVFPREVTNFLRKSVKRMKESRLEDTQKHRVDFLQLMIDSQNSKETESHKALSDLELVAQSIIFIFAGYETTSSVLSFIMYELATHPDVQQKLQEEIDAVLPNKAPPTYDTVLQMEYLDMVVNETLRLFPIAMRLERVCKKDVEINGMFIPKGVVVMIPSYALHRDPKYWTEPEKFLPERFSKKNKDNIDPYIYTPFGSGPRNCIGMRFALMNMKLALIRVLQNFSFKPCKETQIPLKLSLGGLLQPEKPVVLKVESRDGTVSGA

[29] = tested on: Plasma; experiment: as §2; type: ADME, organism-based; parameters: dose 30 mg/kg, route oral; conditions: in vivo, 2 h
[30] = tested on: Mus musculus; experiment: Toxicity in human SUP-M2 cells xenografted SCID mouse assessed as body weight loss at 30 mg/kg, po BID for 10 days; type: organism-based; parameters: dose 30 mg/kg, route oral; conditions: in vivo, 240 h
[31] = tested on: Mus musculus; experiment: Toxicity in human SUP-M2 cells xenografted SCID mouse assessed as incidences of overt toxicity at 30 mg/kg, po BID for 10 days; type: organism-based; parameters: dose 30 mg/kg, route oral; conditions: in vivo, 240 h
[32] = tested on: Mus musculus; experiment: Toxicity in human SUP-M2 cells xenografted SCID mouse assessed as incidences of overt toxicity at 55 mg/kg, po BID for 10 days; type: organism-based; parameters: dose 55 mg/kg, route oral; conditions: in vivo, 240 h
[33] = target: Cytochrome P450 2C9 (Homo sapiens, UniProt P11712); experiment: Inhibition of CYP2C9 (unknown origin); type: ADME
Cytochrome P450 2C9, sequence (P11712 whole entry): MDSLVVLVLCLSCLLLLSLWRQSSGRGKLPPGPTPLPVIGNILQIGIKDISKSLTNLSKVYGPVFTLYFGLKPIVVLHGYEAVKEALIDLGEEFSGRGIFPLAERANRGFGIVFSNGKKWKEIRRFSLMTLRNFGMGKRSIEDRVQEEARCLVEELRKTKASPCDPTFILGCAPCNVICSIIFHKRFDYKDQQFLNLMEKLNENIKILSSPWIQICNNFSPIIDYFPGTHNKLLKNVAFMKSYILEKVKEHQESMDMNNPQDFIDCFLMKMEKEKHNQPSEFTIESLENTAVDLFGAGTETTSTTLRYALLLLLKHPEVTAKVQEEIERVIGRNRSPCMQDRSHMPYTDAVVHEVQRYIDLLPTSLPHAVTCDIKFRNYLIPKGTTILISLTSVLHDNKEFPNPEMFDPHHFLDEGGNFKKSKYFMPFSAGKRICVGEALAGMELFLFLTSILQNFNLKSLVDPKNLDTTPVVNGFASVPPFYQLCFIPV

[34] = tested on: Brain; experiment: as §3; type: ADME, organism-based; parameters: dose 30 mg/kg, route oral; conditions: in vivo, 6 h
[35] = tested on: Plasma; experiment: as §4; type: ADME, organism-based; parameters: dose 30 mg/kg, route oral; conditions: in vivo, 6 h
[36] = target: Cytochrome P450 2C19 (Homo sapiens, UniProt P33261); experiment: Inhibition of CYP2C19 (unknown origin); type: ADME
Cytochrome P450 2C19, sequence (P33261 whole entry): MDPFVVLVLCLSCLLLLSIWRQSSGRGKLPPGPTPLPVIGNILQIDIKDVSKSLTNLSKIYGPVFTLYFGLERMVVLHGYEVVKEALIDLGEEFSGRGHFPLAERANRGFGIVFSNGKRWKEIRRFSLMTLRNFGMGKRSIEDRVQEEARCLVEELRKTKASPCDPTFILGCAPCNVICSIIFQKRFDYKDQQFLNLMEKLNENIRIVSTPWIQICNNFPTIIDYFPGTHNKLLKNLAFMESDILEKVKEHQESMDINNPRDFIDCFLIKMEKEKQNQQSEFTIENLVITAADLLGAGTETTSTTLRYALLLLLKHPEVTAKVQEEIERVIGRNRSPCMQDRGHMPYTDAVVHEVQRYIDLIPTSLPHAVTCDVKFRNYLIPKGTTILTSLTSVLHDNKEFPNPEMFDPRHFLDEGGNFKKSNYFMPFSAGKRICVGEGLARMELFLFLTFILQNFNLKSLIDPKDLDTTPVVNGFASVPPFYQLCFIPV

[37] = target: Voltage-gated inwardly rectifying potassium channel KCNH2 (Homo sapiens, UniProt Q12809); experiment: Inhibition of human ERG by patch clamp cellular assay
Voltage-gated inwardly rectifying potassium channel KCNH2, sequence (Q12809 whole entry): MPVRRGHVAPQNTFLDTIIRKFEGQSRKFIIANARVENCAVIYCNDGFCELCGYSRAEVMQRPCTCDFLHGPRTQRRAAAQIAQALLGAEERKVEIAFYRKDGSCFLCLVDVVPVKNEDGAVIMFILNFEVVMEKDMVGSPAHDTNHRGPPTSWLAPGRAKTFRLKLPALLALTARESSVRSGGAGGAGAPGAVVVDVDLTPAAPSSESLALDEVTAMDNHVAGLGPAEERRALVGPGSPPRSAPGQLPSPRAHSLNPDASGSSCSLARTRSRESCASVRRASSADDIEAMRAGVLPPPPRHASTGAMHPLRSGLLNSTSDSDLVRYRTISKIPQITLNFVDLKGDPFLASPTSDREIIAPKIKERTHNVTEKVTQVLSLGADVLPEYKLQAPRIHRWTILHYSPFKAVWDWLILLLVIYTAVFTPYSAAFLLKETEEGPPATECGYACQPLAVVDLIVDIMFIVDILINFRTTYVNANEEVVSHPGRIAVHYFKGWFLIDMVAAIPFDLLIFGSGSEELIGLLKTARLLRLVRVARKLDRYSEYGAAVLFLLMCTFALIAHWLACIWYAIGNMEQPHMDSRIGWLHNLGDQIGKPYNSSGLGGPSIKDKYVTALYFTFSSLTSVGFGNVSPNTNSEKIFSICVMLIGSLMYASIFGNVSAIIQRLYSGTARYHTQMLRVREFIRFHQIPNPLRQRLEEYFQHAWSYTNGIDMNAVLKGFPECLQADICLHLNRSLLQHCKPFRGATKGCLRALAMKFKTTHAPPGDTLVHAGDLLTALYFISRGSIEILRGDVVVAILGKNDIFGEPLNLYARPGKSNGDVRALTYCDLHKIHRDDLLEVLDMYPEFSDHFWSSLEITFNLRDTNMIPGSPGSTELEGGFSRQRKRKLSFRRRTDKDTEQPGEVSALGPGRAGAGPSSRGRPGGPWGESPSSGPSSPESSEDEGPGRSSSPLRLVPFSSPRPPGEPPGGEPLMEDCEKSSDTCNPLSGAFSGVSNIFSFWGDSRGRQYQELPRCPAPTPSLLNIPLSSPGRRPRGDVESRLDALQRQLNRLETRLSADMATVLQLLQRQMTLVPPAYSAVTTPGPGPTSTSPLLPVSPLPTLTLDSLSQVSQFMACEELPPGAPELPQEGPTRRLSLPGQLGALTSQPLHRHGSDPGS

[38] = target: T1, Cytochrome P450 1A2 (Homo sapiens, UniProt P05177); experiment: Inhibition of CYP1A2 (unknown origin); type: ADME
T1 sequence (P05177 whole entry): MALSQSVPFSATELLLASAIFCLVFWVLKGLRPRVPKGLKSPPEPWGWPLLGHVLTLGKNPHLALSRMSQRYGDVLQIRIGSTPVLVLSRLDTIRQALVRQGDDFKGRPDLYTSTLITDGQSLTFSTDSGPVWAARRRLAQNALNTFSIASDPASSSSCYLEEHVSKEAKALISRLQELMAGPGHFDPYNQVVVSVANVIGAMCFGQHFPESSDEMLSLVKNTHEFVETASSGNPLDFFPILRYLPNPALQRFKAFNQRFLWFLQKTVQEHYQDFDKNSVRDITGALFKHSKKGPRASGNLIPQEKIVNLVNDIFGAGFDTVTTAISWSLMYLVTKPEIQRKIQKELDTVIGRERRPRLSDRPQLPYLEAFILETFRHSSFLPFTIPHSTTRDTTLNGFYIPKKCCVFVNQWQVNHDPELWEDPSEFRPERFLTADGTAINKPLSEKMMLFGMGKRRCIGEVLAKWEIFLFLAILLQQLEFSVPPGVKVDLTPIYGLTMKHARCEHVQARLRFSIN

[39] = target: Cytochrome P450 2D6 (Homo sapiens, UniProt P10635); experiment: Inhibition of CYP2D6A (unknown origin); type: ADME
Cytochrome P450 2D6, sequence (P10635 whole entry): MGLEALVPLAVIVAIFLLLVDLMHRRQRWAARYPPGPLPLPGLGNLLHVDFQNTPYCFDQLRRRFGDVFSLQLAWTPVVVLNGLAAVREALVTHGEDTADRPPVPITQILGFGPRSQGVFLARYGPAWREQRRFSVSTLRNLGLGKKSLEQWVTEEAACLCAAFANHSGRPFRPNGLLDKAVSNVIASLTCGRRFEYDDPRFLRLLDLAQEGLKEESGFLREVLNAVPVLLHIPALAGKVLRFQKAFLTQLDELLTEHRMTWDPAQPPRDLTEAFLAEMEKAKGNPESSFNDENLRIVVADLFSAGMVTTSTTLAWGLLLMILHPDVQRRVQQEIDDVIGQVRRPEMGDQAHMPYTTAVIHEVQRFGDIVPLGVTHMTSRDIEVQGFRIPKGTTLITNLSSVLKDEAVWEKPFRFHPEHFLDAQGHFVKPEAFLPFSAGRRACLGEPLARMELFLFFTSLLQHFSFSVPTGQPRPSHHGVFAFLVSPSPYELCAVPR

SMILES: COc1cc([C@@H]2CCN(CCO)C[C@@H]2O)ccc1Nc1ncc2ccc(-c3ccccc3OC)n2n1 (racemic)
- Cmax [1]: 85 ng/mL
- concentration at 2 h [2]: 1650 ng/g
- Vd [3]: 9.9 L/kg
- clearance [4]: 46 mL/min/kg
- half-life [5]: 37 min
- half-life [6]: > 40 min
- concentration at 2 h [7]: 389 ng/mL
- concentration at 12 h [8]: 164 ng/mL
- half-life [9]: 150 min
- concentration at 24 h [10]: 1580 ng/g
- AUC(0-inf) [11]: 371 ng·h/mL
- solubility [12]: 50 µg/mL (≈ 102 µM)
- half-life [13]: > 40 min
- Tmax [14]: 6 h
- concentration at 6 h [15]: 1770 ng/g
- concentration at 12 h [16]: 2520 ng/g
- half-life [17]: > 40 min
- concentration at 24 h [18]: 19 ng/mL
- concentration at 6 h [19]: 201 ng/mL
- AUC(0-inf) [20]: 479 ng·h/mL
- bioavailability [21]: 26%

SMILES: COc1cc([C@@]2(O)CCN(CC(N)=O)C[C@@H]2O)ccc1Nc1ncc2ccc(-c3ccccc3N(C)S(C)(=O)=O)n2n1
- half-life [5]: > 40 min
- half-life [6]: 32 min
- solubility [12]: ≥ 33 µg/mL
- half-life [13]: 26 min
- half-life [17]: 8 min

SMILES: COc1cc([C@H]2CCN(CCO)C[C@@H]2O)ccc1Nc1ncc2ccc(-c3ccccc3OC)n2n1 [listing 1 of 2 here]
- inhibition [22]: Active
- inhibition [23]: Active

SMILES: COc1cc([C@@]2(O)CCNC[C@@H]2O)ccc1Nc1ncc2ccc(-c3ccccc3N(C)S(C)(=O)=O)n2n1
- half-life [5]: > 40 min
- half-life [6]: > 40 min
- half-life [13]: > 40 min
- half-life [17]: 25 min

SMILES: COc1cc([C@H]2CCN(CCO)C[C@@H]2O)ccc1Nc1ncc2ccc(-c3ccccc3OC)n2n1 (relative stereo)
- Cmax [1]: 97 ng/mL
- concentration at 2 h [2]: 1960 ng/g
- Vd [3]: 10.3 L/kg
- clearance [4]: 39 mL/min/kg
- half-life [5]: > 40 min
- half-life [6]: > 40 min
- concentration at 2 h [7]: 523 ng/mL
- concentration at 12 h [8]: 213 ng/mL
- half-life [9]: 192 min
- concentration at 24 h [10]: 1280 ng/g
- AUC(0-inf) [11]: 459 ng·h/mL
- half-life [13]: > 40 min
- Tmax [14]: 4 h
- concentration at 6 h [15]: 3930 ng/g
- concentration at 12 h [16]: 2670 ng/g
- half-life [17]: 30 min
- concentration at 24 h [18]: 55 ng/mL
- concentration at 6 h [19]: 361 ng/mL
- AUC(0-inf) [20]: 708 ng·h/mL
- bioavailability [21]: 31%

SMILES: COc1cc(C2CCN(CCO)CC2O)ccc1Nc1ncc2ccc(-c3ccccc3OC)n2n1 (single isomer, unassigned; enantiomer 1)
- concentration at 16 h [24]: 2210 ng/g
- concentration at 2 h [2]: 1030 ng/g
- concentration at 2 h [7]: 355 ng/mL
- concentration at 16 h [25]: 51 ng/mL
- concentration at 6 h [15]: 1160 ng/g
- concentration at 6 h [19]: 148 ng/mL

SMILES: COc1cc(C2CCN(C)CC2O)ccc1Nc1ncc2ccc(-c3ccccc3OC)n2n1 (racemic)
- half-life [5]: 18 min
- half-life [6]: > 40 min
- half-life [13]: > 40 min
- half-life [17]: 22 min

SMILES: COc1cc([C@H]2CCN(CCO)C[C@@H]2O)ccc1Nc1ncc2ccc(-c3ccccc3OC)n2n1 [listing 2 of 2 here]
- Activity [26]: Non-toxic
- concentration at 16 h [24]: 16100 ng/g
- Drug uptake [27]: 1217 ng/g
- IC50 [28]: 12 µM
- Cp [29]: 407 ng/mL
- Activity [30]: Non-toxic
- Activity [31]: Non-toxic
- Activity [32]: Non-toxic
- IC50 [33]: 19 µM
- concentration at 16 h [25]: 567 ng/mL
- Drug uptake [34]: 3150 ng/g
- Cp [35]: 573 ng/mL
- IC50 [36]: 17 µM
- IC50 [37]: 6.8 µM
- IC50 [38]: > 30 µM
- IC50 [39]: > 30 µM

SMILES: COc1cc([C@@]2(O)CCNC[C@@H]2O)ccc1Nc1ncc2ccc(-c3ccccc3OC)n2n1
- half-life [5]: > 40 min
- half-life [6]: > 40 min
- half-life [13]: > 40 min
- half-life [17]: > 40 min

SMILES: COc1cc([C@@]2(O)CCN(CC(N)=O)C[C@@H]2O)ccc1Nc1ncc2ccc(-c3ccccc3OC)n2n1
- half-life [5]: > 40 min
- half-life [6]: > 40 min
- solubility [12]: ≥ 33 µg/mL
- half-life [13]: 31 min
- half-life [17]: 17 min

SMILES: COc1cc([C@@H]2CCN(CC(N)=O)C[C@@H]2O)ccc1Nc1ncc2ccc(-c3ccccc3OC)n2n1 (relative stereo)
- half-life [5]: > 40 min
- half-life [6]: 19 min
- solubility [12]: 2 µg/mL (≈ 3.98 µM)
- half-life [13]: 34 min
- half-life [17]: 7 min

SMILES: COc1cc([C@@]2(O)CCN(C)C[C@@H]2O)ccc1Nc1ncc2ccc(-c3ccccc3OC)n2n1 (relative stereo)
- half-life [5]: > 40 min
- half-life [6]: > 40 min
- half-life [13]: > 40 min
- half-life [17]: 32 min
- IC50 [37]: Active

SMILES: COc1cc([C@@H]2CCNC[C@@H]2O)ccc1Nc1ncc2ccc(-c3ccccc3OC)n2n1 (relative stereo)
- half-life [5]: > 40 min
- half-life [6]: > 40 min
- half-life [13]: > 40 min
- half-life [17]: > 40 min
